Measured values taken from PMC7699649 (Communications Biology, 2020).
No end group written: not given here.

Experiments:
[1] = tested on: Acinetobacter baumannii ATCC 17978; settings: Supplementary Table 3; medium not stated; at least three biological replicates
Experimental: (§1) The antibacterial activity of the peptides was assessed through a modified twofold broth microdilution assay with modal MICs generated from at least three biological replicate experiments[20],[25]. The method broadly followed EUCAST methodology, with non-cation-adjusted Mueller Hinton or RPMI replacing cation-adjusted Mueller Hinton. Peptides and antibiotics were diluted in a twofold dilution in media down a 96 well plate. Bacteria were then added, back-diluted from an overnight culture, at a starting concentration of 5 × 10^5 CFU/ml. Plates were incubated, static at 37 C, for 20 h and the OD600 was determined using a Clariostar plate reader (BMG Labtech). […] Synergy was measured using standard microdilution checkerboard assays under the same conditions as the MICs[54]. Twofold dilution series of each peptide or antibiotic were prepared in separate 96 well plates and then combined into one before addition of bacteria. The growth/no growth interface was determined using the same definition as the MIC. The fractional inhibitory concentration was calculated from the most synergistic well on the plate for three independent repeats, and presented as the average +/− standard deviation. FIC is calculated as (MIC of compound A in combination with B/MIC of compound A alone) + (MIC of compound B in combination with A/MIC of compound B alone). MICs were determined on the same plates as the FICs to increase reproducibility.

[2] = tested on: Acinetobacter baumannii AYE; settings: Supplementary Table 3; medium not stated; at least three biological replicates
Experimental: as §1

[3] = tested on: EMR Staphylococcus aureus-15 NCTC 13616; settings: Supplementary Table 3; medium not stated; at least three biological replicates
Experimental: as §1

[4] = tested on: EMR Staphylococcus aureus-16 NCTC 13277; settings: Supplementary Table 3; medium not stated; at least three biological replicates
Experimental: as §1

[5] = tested on: Klebsiella pneumoniae M6; settings: Supplementary Table 3; medium not stated; at least three biological replicates
Experimental: as §1

[6] = tested on: Klebsiella pneumoniae NCTC 13368; settings: Supplementary Table 3; medium not stated; at least three biological replicates
Experimental: as §1

[7] = tested on: MS Staphylococcus aureus ATCC 9144; settings: Supplementary Table 3; medium not stated; at least three biological replicates
Experimental: as §1

[8] = tested on: Pseudomonas aeruginosa NCTC 13437; settings: Supplementary Table 3; medium not stated; at least three biological replicates
Experimental: as §1

[9] = tested on: Pseudomonas aeruginosa PAO1; settings: Supplementary Table 3; medium not stated; at least three biological replicates
Experimental: as §1

[10] = tested on: VR Enterococcus faecium NCTC 12204; settings: Supplementary Table 3; medium not stated; at least three biological replicates
Experimental: as §1

[11] = tested on: VS Enterococcus faecalis NCTC 775; settings: Supplementary Table 3; medium not stated; at least three biological replicates
Experimental: as §1

[12] = tested on: Escherichia coli NCTC 12923; settings: Supplementary Table 3; medium not stated; at least three biological replicates
Experimental: as §1

[13] = tested on: human red blood cells; assay: Haemolysis assay; assay type: cell-based; settings: human red blood cells in PBS, 1 h 37 °C, OD550, relative to 0.1% Triton-X-100; for concentration at which 10% haemolysis is achieved: three biological replicates
Experimental: Haemolysis was tested by incubating titrations of AMPs in PBS with freshly collected human red blood cells for 1 h at 37 °C. Control wells were treated with 0.1% Triton-X-100 to ensure complete lysis, or PBS-only to represent no lysis. Samples were spun down to remove non-lysed cells and the OD550 of the supernatant was measured using a Clariostar plate reader. The percentage of haemolysis was calculated as % haemolysis = (AP − AB)/(AC − AB) × 100, where AP is the absorbance value for a known peptide concentration, AC is the absorbance of the 0.1% Triton-X-100 control, AB is the absorbance of the PBS control. Data presented are averages and standard error from three biological replicate experiments.

| Compound | Antibiogram, antibiotic concentration (MIC) [1] [µg/mL] | Antibiogram, antibiotic concentration (MIC) [2] [µg/mL] | Antibiogram, antibiotic concentration (MIC) [3] [µg/mL] | Antibiogram, antibiotic concentration (MIC) [4] [µg/mL] | Antibiogram, antibiotic concentration (MIC) [5] [µg/mL] | Antibiogram, antibiotic concentration (MIC) [6] [µg/mL] | Antibiogram, antibiotic concentration (MIC) [7] [µg/mL] | Antibiogram, antibiotic concentration (MIC) [8] [µg/mL] | Antibiogram, antibiotic concentration (MIC) [9] [µg/mL] | Antibiogram, antibiotic concentration (MIC) [10] [µg/mL] | Antibiogram, antibiotic concentration (MIC) [11] [µg/mL] | Antibiogram, antibiotic concentration (MIC) [12] [µg/mL] | haemolysis at the highest concentration tested 400 µg/ml [13] | concentration at which 10% haemolysis is achieved [13] [µg/mL] |
| --- | --- | --- | --- | --- | --- | --- | --- | --- | --- | --- | --- | --- | --- | --- |
| CC(C)(O/N=C(\C(=O)N[C@@H]1C(=O)N2C(C(=O)[O-])=C(C[n+]3ccccc3)CS[C@H]12)c1csc(N)n1)C(=O)O [Ceftazidime] | < 0.5 | > 128 | 128 | 8 | < 0.5 | 512 | 16 | > 128 | 1 | > 128 | 32 | – | – | – |
| O=C(O)c1cn(C2CC2)c2cc(N3CCNCC3)c(F)cc2c1=O [Ciprofloxacin] | 0.5 | 128 | 64 | 128 | < 0.5 | 0.5 | 1 | 64 | 0.5 | 1 | 2 | ≤ 0.125 | – | – |
| CNC(C)C1CCC(N)C(OC2C(N)CC(N)C(OC3OCC(C)(O)C(NC)C3O)C2O)O1 (centres unmarked) [Gentamicin] | 0.5 | > 512 | 0.25 | 0.25 | 0.25 | 4 | 0.25 | 256 | 4 | 4 | 4 | 1 | – | – |
| NC[C@H]1O[C@H](O[C@H]2[C@H](O)[C@@H](O[C@H]3O[C@H](CO)[C@@H](O)[C@H](N)[C@H]3O)[C@H](N)C[C@@H]2N)[C@H](N)C[C@@H]1O [Tobramycin] | 4 | 64 | 0.5 | 0.25 | 8 | 64 | 0.25 to 0.5 | 64 | 2 | 64 | 4 | 16 | – | – |
| Colistin | 1 | 1 | > 128 | – | 2 | 1 | – | 4 | 2 | – | – | 0.0625 | – | – |
| GWGSFFKKAAHAGKHAGKAALTHYL-NH2 [Pleurocidin-VA] | – | – | – | – | – | – | – | – | – | – | – | – | Neither pleurocidin-VA nor D-pleurocidin-VA induce detectable haemolysis | – |
| GWGSFFKKAAHVGKHVGKAALTHYL-NH2 [Pleurocidin, reference compound] | – | – | – | – | – | – | – | – | – | – | – | – | 50% | 120 |
| GWGSFFRRAAHVGRHVGRAALTHYL-NH2 [Pleurocidin-KR] | – | – | – | – | – | – | – | – | – | – | – | – | – | 192 |
